Experimental data: JP2010202587A, “プロトンポンプ阻害剤を含有する組成物” (Pola Chemical Industries Inc, priority 2009, dated 2010)

Columns and labels:
[1] = molecular target: T1, tyrosinase [チロシナ−ゼ] (Homo sapiens, UniProt P14679); details: known from patent literature; cited from earlier work
T1 sequence (P14679 19-529): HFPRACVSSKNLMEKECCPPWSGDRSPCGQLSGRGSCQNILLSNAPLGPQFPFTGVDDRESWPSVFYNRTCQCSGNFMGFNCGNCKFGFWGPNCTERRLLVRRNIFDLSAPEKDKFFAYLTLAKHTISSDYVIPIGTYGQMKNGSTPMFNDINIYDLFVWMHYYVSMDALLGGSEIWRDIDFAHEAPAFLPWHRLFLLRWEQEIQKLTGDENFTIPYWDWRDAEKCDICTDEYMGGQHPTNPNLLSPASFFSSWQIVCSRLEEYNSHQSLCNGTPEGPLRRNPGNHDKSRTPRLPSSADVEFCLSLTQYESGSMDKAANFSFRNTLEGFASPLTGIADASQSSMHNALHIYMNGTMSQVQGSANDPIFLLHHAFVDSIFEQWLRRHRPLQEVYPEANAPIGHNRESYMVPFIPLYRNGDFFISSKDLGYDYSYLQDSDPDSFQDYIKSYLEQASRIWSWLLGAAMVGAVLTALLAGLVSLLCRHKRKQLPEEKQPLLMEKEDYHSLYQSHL

[2] = test system: human normal melanocytes [ヒト正常メラノサイト]; experiment: Melanin production inhibition (2-[2-14C]thiouracil uptake, 4 days); format: cell-based; details: in words, from Table 1
[3] = molecular target: T2, tyrosinase [チロシナ−ゼ] (Homo sapiens, UniProt P14679); experiment: Direct tyrosinase inhibition (human melanocyte extract, L-DOPA substrate); format: biochemical; details: human normal melanocyte extract, 37℃, 15 min, in words, from Table 2
T2 construct: 溶解液を15000rpm、5分間遠心し、上清を回収し細胞抽出液とした; host or cells: normal human melanocytes (detergent lysate supernatant)

[4] = test system: human normal melanocytes [ヒト正常メラノサイト]; experiment: Detection of acidification in melanosomes (proton pump inhibition; DAMP fluorescence, confocal laser microscope); format: cell-based; details: Figure 2; for Colour of overlaid photograph (DAMP + tyrosinase): yellow = melanosome acidified

Compound | Melanin production inhibition compared with the positive control (hydroquinone) [2] | Red staining showing the presence of tyrosinase ([4]; versus untreated control) | Colour of overlaid photograph (DAMP + tyrosinase) [4] | other results
CCCCc1ccc(O)cc1O [4−n−ブチルレゾルシノ−ル] | – | – | – | Tyrosinase inhibitory activity [1]: 強力なチロシナ−ゼ阻害活性
Oc1ccc(O)cc1 [ハイドロキノン, reference compound] | – | – | – | Melanin production inhibition [2]: 優れたメラニン産生抑制作用
NC(=S)Nc1ccccc1 [フェニルチオウレア] | – | – | – | Direct tyrosinase inhibition [3]: 顕著なチロシナ−ゼ直接阻害作用を示した
CC(C)=CCc1cc([C@@H]2CC(=O)c3c(O)c(CC=C(C)C)c(O)c(CC=C(C)C)c3O2)cc(O)c1O [化合物3, amorisin] | 陽性対照と同等乃至はそれ以上のメラニン産生抑制作用 | 同程度 | – | –
Euchrenone a3 [化合物2] | 優れたメラニン産生抑制作用 | – | 黄色より幾分オレンジ色がかっている | –
Euchrenone a6 [化合物1] | 優れたメラニン産生抑制作用 | コントロ−ルと同程度 | 黄色を呈している | Green staining showing the degree of acidification (DAMP) ([4]; versus untreated control): 濃くなっており
